≈ marks a conversion by molar mass, not a printed value.
What was measured:
lanosterol demethylase [1] = target: T1, lanosterol demethylase (Candida albicans, UniProt P10613); test: Radiolabeled metabolic assay of lanosterol demethylase inhibition (14C-acetate, lanosterol accumulation); type: cell-based; conditions: Candida albicans SC5314, 1 hour, 30°, TLC autoradiography
T1 construct: endogenous in cells; host or cells: Candida albicans SC5314
Method: (§1) The inhibition of lanosterol demethylase was determined by two methods: the spectrophotometric carbon monoxide binding assay of Omura and Sato (J. Biol. Chem. 239:2370-2378, 1964) and by a radiolabeled metabolic assay.
The ability of scopularin and its alcohol to inhibit the lanosterol demethylase of Candida albicans can also be visualized by a metabolic assay. Candida albicans SC5314, was grown overnight at 30° with shaking in the same medium as that used above. Cells were harvested by centrifugation and resuspended in water to give an optical density of 0.3 at 660 nm. 750 μl of this cell suspension, 300 μl of a medium containing 0.35 g Difco yeast nitrogen base without amino acids, 1 g glucose and distilled water to 10 ml, 100 μl of test material and distilled water were combined to give a final volume of 1.425 ml. This was incubated for 15 minutes at 30° C. with shaking, then 3 μCi ^14 C-acetate was added and continued to incubate for 1 hour. Cells were harvested by centrifugation and extracted with 2×0.5 ml methanol; centrifuged, decanted supernate and repeated the extraction with […] methanol-benzene (1:1). Centrifuged, decanted; combined supernates, dried and resuspended in 100 μl chloroform-methanol (1:1). The aliquots were spotted onto silica gel 60 (Merck) plates and developed chromatographically in a solvent containing dichloromethane-acetone (60:1). […]

Candida krusei = test: Agar dilution MIC assay; type: cell-based; conditions: Pichia kudriavzevii, SC2967, 18 h
Method: (§2) The following methodology was used to determine the miniumum inhibitory concentration (hereinafter referred to as MIC) of scopularin.
(§3) The aerobic test organisms were grown in approximately 15-20 ml of Antibiotic Assay Broth (Difco) by inoculating (in tubes) the broth with a loopful of the organism from a BHI (Difco) agar slant. The inoculated tubes were incubated at 37° C. for 18 to 24 hours. These cultures are assumed to contain 10^7 colony forming units (CFU) per ml and the cultures were diluted 1:100 to give a final inoculum level of 10^5 CFU dilutions were made with Yeast Beef Broth (Difco).
(§4) Scopularin was dissolved in an appropriate diluent at a concentration of 1,000 μg/ml. Two-fold dilutions were made in Yeast Beef Broth (Difco), resulting in a range from 1000 μg/ml to 0.5 μg/ml. 1.5 ml of each dilution was placed into individual petri dishes to which 13.5 ml of K-10 agar was added. The composition of K-10 agar is:
(§5) The final drug concentration in the agar ranged from 100 μg/ml to 0.05 μg/ml. Organism growth control plates containing agar only were prepared and inoculated before and after the test plates. The organisms were applied to the agar surface of each plate with a Denyl Multipoint Inoculator (which delivers approximately 0.001 ml of each organism) resulting in a final inoculum of 10^4 CFU on the agar surface.
(§6) The plates were incubated at 37° C. for 18 hours and the MICs determined. The MIC is the lowest concentration of compound inhibiting growth of the organism.

Candida albicans = test: Agar dilution MIC assay; type: cell-based
Method: as §2, §3, §4, §5, §6

lanosterol demethylase [2] = target: T1, lanosterol demethylase; test: Spectrophotometric carbon monoxide binding assay (Omura and Sato); conditions: Candida albicans SGY677, read-out: 50% inhibition of carbon monoxide binding
Method: as §1
Cells of Candida albicans, SGY677, were grown overnight without shaking at 30° C. in a medium consisting of yeast extract 1% , peptone 2%, glucose 2% and distilled water. Cells were harvested by centrifugation and resuspended in 0.65M mannitol to an optical density at 600 nm of 2.5. At this density 1 ml of cells was equal to 6.7 mg constant dry weight (105° C. for 18 hours).

T1 sequence (P10613 whole entry): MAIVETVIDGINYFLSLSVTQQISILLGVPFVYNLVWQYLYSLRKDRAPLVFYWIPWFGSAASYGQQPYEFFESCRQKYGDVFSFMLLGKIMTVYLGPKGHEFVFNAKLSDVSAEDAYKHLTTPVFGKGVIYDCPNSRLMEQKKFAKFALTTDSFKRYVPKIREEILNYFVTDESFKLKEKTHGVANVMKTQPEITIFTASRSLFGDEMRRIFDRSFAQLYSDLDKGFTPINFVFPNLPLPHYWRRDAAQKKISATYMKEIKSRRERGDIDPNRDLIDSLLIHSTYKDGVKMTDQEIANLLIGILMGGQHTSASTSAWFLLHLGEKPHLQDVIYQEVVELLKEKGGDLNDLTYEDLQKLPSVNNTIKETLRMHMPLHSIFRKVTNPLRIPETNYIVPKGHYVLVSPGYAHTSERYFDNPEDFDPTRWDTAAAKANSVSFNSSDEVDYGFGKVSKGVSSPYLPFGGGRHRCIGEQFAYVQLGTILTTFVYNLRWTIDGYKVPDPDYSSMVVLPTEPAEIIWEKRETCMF

Structure (SMILES) | concentration causing accumulation of lanosterol, consistent with inhibition of lanosterol demethylase (lanosterol demethylase [1]) [µM] | MIC (Candida krusei) [µg/mL] | MIC (Candida albicans; SC12, 18 h) [µg/mL] | MIC (Candida albicans; SC14, 18 h) [µg/mL] | IC50 (lanosterol demethylase [2]) [µM]
CCC/C=C/C=C/C=C(\C)[C@H]1OC[C@@H](C)[C@@H](OC)[C@@H]1OC(=O)CN (relative stereo) [Scopularin, (2α, 3β, 4α, 5α)-Tetrahydro-4-methoxy-5-methyl-2-(1-methyl-1,3,5-nonatrienyl)-2H-pyran-3-ol, amino-acetate ester] | 360 | 0.4 (≈ 1.19 µM) | 100 (≈ 296 µM) | 50 (≈ 148 µM) | –
CCCC=CC=CC=C(C)[C@H]1OC[C@@H](C)[C@@H](OC)[C@@H]1O (relative stereo) [alcohol] | 14 | – | – | – | 14

— US5294725A, “Scopularin” (E. R. Squibb & Sons, Inc., priority 1989, dated 1994)
